{"source": "paper PMC11940343", "about": "“In Vitro and In Vivo Evaluation of the De Novo Designed Antimicrobial Peptide P6.2 Against a KPC-Producing P. aeruginosa Clinical Isolate” (Biomolecules, 2025)", "key": {"mice erythrocytes": {"system": "mice erythrocytes", "conditions": "cited from earlier work", "source_text": "(§1) Peptide 6.2 (P6.2) is a de novo designed antimicrobial peptide, with an amphipathic alfa helical structure."}, "[1]": {"conditions": "affinity towards eukaryotic and prokaryotic membranes; cited from earlier work", "source_text": "as §1"}, "P. aeruginosa M13513 [2]": {"system": "P. aeruginosa M13513", "test": "Synergy by time-kill kinetic assay", "type": "cell-based, Pseudomonas aeruginosa", "conditions": "P6.2 and meropenem both at 0.5× MIC, synergy = ≥2-log10 decrease in CFU/mL vs most active constituent after 24 h", "protocol": "The possible synergistic interaction between P6.2 and meropenem was assessed through time–kill kinetic assays. These experiments were conducted in 50 mL tubes with a final volume of 10 mL. A log-phase culture of P. aeruginosa M13513 was obtained and subsequently diluted in CAMHB to achieve a final bacterial concentration of 5 × 10^6 CFU/mL. Both P6.2 and meropenem were tested individually and in combination at 0.5× MIC (minimum inhibitory concentration). Untreated bacterial cultures served as controls.\nThe samples were incubated at 37 °C with constant shaking for 24 h. Aliquots were collected at 0, 1, 2, 3, 4, 8, and 20 h, serially diluted in saline, and plated in triplicate on LB agar using three drops of 50 µL per dilution. The plates were incubated at 37 °C for 24 h to determine colony-forming unit (CFU) counts.\nThe results were plotted as Log CFU/mL versus time (h). […] A bactericidal effect was determined when the initial inoculum was reduced by three or more logarithmic units."}, "P. aeruginosa M13513 [3]": {"system": "P. aeruginosa M13513", "protocol": "To analyze the stability of the molecule, the peptide was exposed to different temperatures for varying durations. The conditions tested involved incubation at 37 °C for 24 h, at 60 °C for 2 h, and at 100 °C for 15 min. Each condition was set up in a microtube with the peptide dissolved in sterile deionized water. As a control, the peptide was dissolved immediately before testing without temperature incubation. Afterward, the broth microdilution assay was conducted to assess its antimicrobial effectiveness. Additionally, the stability of the peptide in serum was examined. Three microtubes were prepared, each containing sterile deionized water with FCBS (fetal calf bovine serum) 25% (v/v) and the antimicrobial peptide. Two of these samples were incubated at 37 °C for 24 h or 2 h, while the third sample was prepared just before testing without any temperature incubation. As controls, serum alone and peptide without serum were used. The antimicrobial activity was subsequently evaluated through the broth microdilution assay. In order to assess the stability of the AMP, P6.2 was incubated at different temperature conditions or with FBS (fetal bovine serum) for different time periods. The temperature exposures were overnight (ON) at 37 °C, 120 min at 60 °C, and 15 min at 100 °C. […]"}, "P. aeruginosa M13513 [4]": {"system": "P. aeruginosa M13513", "test": "Peptide stability at different temperatures, read out by broth microdilution MIC", "type": "physicochemical, Pseudomonas aeruginosa", "design": "unit not given beside the values", "conditions": "peptide in sterile deionized water, then broth microdilution vs P. aeruginosa M13513", "protocol": "To analyze the stability of the molecule, the peptide was exposed to different temperatures for varying durations. The conditions tested involved incubation at 37 °C for 24 h, at 60 °C for 2 h, and at 100 °C for 15 min. Each condition was set up in a microtube with the peptide dissolved in sterile deionized water. As a control, the peptide was dissolved immediately before testing without temperature incubation. Afterward, the broth microdilution assay was conducted to assess its antimicrobial effectiveness. Additionally, the stability of the peptide in serum was examined. Three microtubes were prepared, each containing sterile deionized water with FCBS (fetal calf bovine serum) 25% (v/v) and the antimicrobial peptide. Two of these samples were incubated at 37 °C for 24 h or 2 h, while the third sample was prepared just before testing without any temperature incubation. As controls, serum alone and peptide without serum were used. The antimicrobial activity was subsequently evaluated through the broth microdilution assay. In order to assess the stability of the AMP, P6.2 was incubated at different temperature conditions or with FBS (fetal bovine serum) for different time periods. The temperature exposures were overnight (ON) at 37 °C, 120 min at 60 °C, and 15 min at 100 °C. P6.2 was incubated with 25% FBS at 37 °C for 2 and 24 h before the experiment or directly at the moment of the experiment. Then, a microdilution assay was performed to test the antimicrobial activity."}, "P. aeruginosa M13513 [5]": {"system": "P. aeruginosa M13513", "test": "Bactericidal effect by killing kinetics (time-kill curve)", "type": "cell-based, Pseudomonas aeruginosa", "conditions": "killing kinetics at 64 µg/mL of P6.2", "protocol": "The bactericidal activity was determined according to the CLSI recommendations. In short, the bactericidal activity of the antimicrobial agents on the microorganisms was evaluated using a time–kill curve. The Minimal Bactericidal Concentration (MBC) is the lowest drug concentration required to eliminate 99.9% of viable organisms (a 3-log reduction in CFU/mL compared to the control) after a set incubation period under defined conditions. This is the most common method for estimating bactericidal activity.\nThe killing kinetics of an antimicrobial agent allow us to observe how the agent exerts its activity as a function of time, determining viable cells by counting colony-forming units at different time points. Normally, for commonly used antibiotics, this measurement is carried out over a 24-h period, since they reach their maximum activity during this period. However, for AMPs, these times are much shorter; in fact, these antimicrobials exert their maximum activity in just hours or minutes. For this reason, killing kinetics at MIC was carried out by measuring viable bacteria at short intervals over a period of three hours."}, "human erythrocytes": {"system": "human erythrocytes", "conditions": "cited from earlier work", "protocol": "Peptide 6.2 (P6.2) is a de novo designed antimicrobial peptide, with an amphipathic alfa helical structure. […] These findings are also in accordance with the previous results obtained for toxicity by hemolytic activity (hemolysis below 5% until 128 µg/mL)."}, "P. aeruginosa M13513 [6]": {"system": "P. aeruginosa M13513", "test": "Inhibition of biofilm formation (crystal violet)", "type": "cell-based, Pseudomonas aeruginosa", "conditions": "sub-MIC concentrations (1/8 to 1/2 of the MIC), 24 h", "protocol": "The assessment of biofilm inhibition was carried out using 96-well flat-bottom polystyrene plates. Antimicrobial agents were diluted in Mueller–Hinton broth through a two-fold serial dilution and subsequently inoculated with a fresh bacterial culture to obtain a final concentration of 5 × 10^5 CFU/mL, with a total well volume of 100 µL. The plates were then incubated at 37 °C for 24 h. Bacteria cultured without the peptide served as the control. To evaluate biofilm formation following peptide exposure, the supernatant was carefully removed, and the wells were washed twice with 100 µL of saline solution to eliminate any non-adherent cells. The remaining biofilm was fixed by adding 100 µL of methanol for 15 min, followed by staining with 100 µL of 1% (v/v) crystal violet ( Sigma-Aldrich, Massachusetts, USA) for 5 min. After staining, the excess dye was discarded, and the wells were rinsed twice with 200 µL of distilled water before allowing the plate to dry at 37 °C for 30 min. Finally, 100 µL of 33% acetic acid was added to each well, and the samples were homogenized by gentle agitation. The absorbance was then measured at 595 nm using a microplate reader (RT2100, Rayto Life and Analytical Sciences Co., Ltd., Shenzhen, China)."}, "[7]": {"system": "Pseudomonas aeruginosa M13513", "test": "MIC by broth microdilution (CLSI)", "type": "cell-based", "conditions": "CAMHB, two consecutive values shown where replicates varied by one dilution", "source_text": "Pseudomonas aeruginosa M13513 is a clinical isolate carrying the carbapenemase KPC-2 (blaKPC-2 gene). This strain was generously supplied by the Servicio Antimicrobianos, Instituto Nacional de Enfermedades Infecciosas (INEI)-ANLIS “Dr. Carlos G. Malbrán” in Buenos Aires, Argentina.\nFor antimicrobial testing, bacterial cultures were maintained in Cation-Adjusted Mueller–Hinton Broth (CAMHB), following Clinical and Laboratory Standards Institute (CLSI) guidelines.\nThe minimal inhibitory concentration was assessed using a standard microdilution assay, following CLSI guidelines. Mueller–Hinton Broth (Laboratorios Britania S.A., Buenos Aires, Argentina) supplemented with Ca^2+ (20–25 mg/L) and Mg^2+ (10–12.5 mg/L) was used for the assay. The bacterial strains tested included Pseudomonas aeruginosa PAO1, Pseudomonas aeruginosa M13513, and Staphylococcus aureus ATCC® 25923."}}, "note": "No end group written: not given here."}
{"substance": "GLLRKWGKKWKEFLRRVWK-NH2 [Peptide P6.2]", "values": [{"measurement": "erythrocytes lysis", "setting": "mice erythrocytes", "result": "less than 10%"}, {"measurement": "membrane selectivity", "setting": "[1]", "result": "selectivity for bacterial membranes"}, {"measurement": "interaction with meropenem", "setting": "P. aeruginosa M13513 [2]", "result": "synergism"}, {"measurement": "reduction of antimicrobial activity after serum incubation", "setting": "P. aeruginosa M13513 [3]", "result": "two-fold dilution"}, {"measurement": "MIC after temperature exposure", "setting": "P. aeruginosa M13513 [4]; 37 °C ON (24 h)", "result": "32/64"}, {"measurement": "MIC after temperature exposure", "setting": "P. aeruginosa M13513 [4]; 60 °C 120 min", "result": "32/64"}, {"measurement": "MIC after temperature exposure", "setting": "P. aeruginosa M13513 [4]; 100 °C 15 min", "result": "32/64"}, {"measurement": "time to 99.9% reduction in viable bacteria (bactericidal effect)", "setting": "P. aeruginosa M13513 [5]", "result": "less than 45 min"}, {"measurement": "erythrocytes lysis", "setting": "human erythrocytes", "result": "less than 10%"}, {"measurement": "biofilm inhibitory activity", "setting": "P. aeruginosa M13513 [6]", "result": "did not show anti-biofilm activity"}, {"measurement": "MIC", "setting": "[7]", "result": "32/64"}]}
